tested on: ULK; assay: ULK radiometric assay (33P incorporation onto MBP substrate, glass fiber capture filter); conditions: ULK Biochemical activity; 20 uM ATP, 0.2 mg/mL MBP; averages of at least two independent experiments
Description: ULK activity was measured using a radiometric assay, to measure the incorporation of radiolabelled ^33P onto MBP substrate using a glass fiber capture filter method. Reaction conditions were 0.2 mg/mL MBP, 20 uM ATP (0.25 μCi/well), 50 mM Tris HCl, pH7.5, 10 mM MgCl2, 0.1% beta-mercaptoethanol, 0.1 mM EGTA, 0.01% BSA. Ten point Half log Compound dilution series were prepared in 100% DMSO and added to the reaction to give final assay concentration of 10% DMSO. Compounds were tested in duplicate and values normalized to 10% DMSO only controls. The data were fitted to a four parameter fit equation and the IC50 values shown are averages of at least two independent experiments.

SMILES | IC50 [nM]
COc1nn(C)cc1Nc1ncc(C(F)(F)F)c(NCCCN2CCCCC2=O)n1 [Example 27, 1-[3-[[2-[(3-Methoxy-1-methyl-pyrazol-4-yl)amino]-5-(trifluoromethyl)pyrimidin-4-yl]amino]propyl]piperidin-2-one] | < 200
Cc1cc2c(cc1Nc1ncc(C(F)(F)F)c(NCCCN3CCCCC3=O)n1)CNCC2 [Example 23, 6-methyl-7-[[4-[3-(2-oxo-1-piperidyl)propylamino]-5-(trifluoromethyl)pyrimidin-2-yl]amino]-3,4-dihydro-1H-isoquinoline] | < 200
O=C1CCCCN1CCCNc1nc(Nc2cc(OC3CCNCC3)ccc2Cl)ncc1C(F)(F)F [Example 44, 1-[3-[[2-[2-Chloro-5-(4-piperidyloxy)anilino]-5-(trifluoromethyl)pyrimidin-4-yl]amino]propyl]piperidin-2-one] | 200 to 1000
CN1CCC(Oc2cccc(Nc3ncc(C4CC4)c(NCCCN4CCCCC4=O)n3)c2)CC1 [Example 16, 1-(3-((5-Cyclopropyl-2-((3-((1-methylpiperidin-4-yl)oxy)phenyl)amino)pyrimidin-4-yl)amino)propyl)piperidin-2-one] | < 200
CN1CCc2cc(Nc3ncc(C4CC4)c(NC4CC4)n3)ccc2C1 [Example 17, N4,5-dicyclopropyl-N2-(2-methyl-1,2,3,4-tetrahydroisoquinolin-6-yl)pyrimidine-2,4-diamine] | < 200
CN1CCC(Oc2cccc(Nc3ncc(C(F)(F)F)c(NCCCN4CCCCC4=O)n3)c2)CC1 [Example 8, 1-[3-[[2-[3-[(1-Methyl-4-piperidyl)oxy]anilino]-5-(trifluoromethyl)pyrimidin-4-yl]amino]propyl]piperidin-2-one] | < 200
COc1cc2c(cc1Nc1ncc(C(F)(F)F)c(NCCCn3ccnc3)n1)CNCC2 [Example 70, N4-(3-imidazol-1-ylpropyl)-N2-(6-methoxy-1,2,3,4-tetrahydroisoquinolin-7-yl)-5-(trifluoromethyl)pyrimidine-2,4-diamine] | 200 to 1000
CN(C)CCCNc1nc(Nc2cccc(OC3CCN(C)CC3)c2)ncc1C1CC1 [Example 84, 5-Cyclopropyl-N4-(3-(dimethylamino)propyl)-N2-(3-(1-methylpiperidin-4-yloxy)phenyl)pyrimidine-2,4-diamine] | ≥ 1000
CN1CCc2cc(Nc3ncc(C(F)(F)F)c(NCCCN4CCCC4=O)n3)ccc2C1 [Example 76, 1-[3-[[2-[(2-Methyl-3,4-dihydro-1H-isoquinolin-6-yl)amino]-5-(trifluoromethyl)pyrimidin-4-yl]amino]propyl]pyrrolidin-2-one] | < 200
O=C1CCCN1CCCNc1nc(Nc2ccc3c(c2)CNCC3)ncc1C(F)(F)F [Example 77, 1-[3-[[2-(1,2,3,4-Tetrahydroisoquinolin-7-ylamino)-5-(trifluoromethyl)pyrimidin-4-yl]amino]propyl]pyrrolidin-2-one] | ≥ 1000
CN1CCc2cc(Nc3ncc(C4CC4)c(NCCCN4CCCCC4=O)n3)ccc2C1 [Example 11, 1-(3-((5-Cyclopropyl-2-((2-methyl-1,2,3,4-tetrahydroisoquinolin-6-yl)amino)pyrimidin-4-yl)amino)propyl)piperidin-2-one] | < 200
COc1ccc(CO)cc1Nc1ncc(C(F)(F)F)c(NCCCN2CCCCC2=O)n1 [Example 47, 1-[3-[[2-[5-(Hydroxymethyl)-2-methoxy-anilino]-5-(trifluoromethyl)pyrimidin-4-yl]amino]propyl]piperidin-2-one] | ≥ 1000
COc1cc(C(=O)N2CCN(C)CC2)ccc1Nc1ncc(C(F)(F)F)c(NCCCN2CCCCC2=O)n1 [Example 41, 1-[3-[[2-[2-Methoxy-4-(4-methylpiperazine-1-carbonyl)anilino]-5-(trifluoromethyl)pyrimidin-4-yl]amino]propyl]piperidin-2-one] | 200 to 1000
FC(F)(F)c1cnc(Nc2ccc(N3CCOCC3)cc2)nc1NCc1cn[nH]c1 [Example 92, N2-(4-morpholinophenyl)-N4-(1H-pyrazol-4-ylmethyl)-5-(trifluoromethyl)pyrimidine-2,4-diamine] | ≥ 1000
O=C(CCNc1nc(Nc2cc3c(cc2Cl)CNCC3)ncc1C(F)(F)F)N[C@@H](C1CC1)C(F)(F)F [Example 2, (S)-3-(2-(7-chloro-1,2,3,4-tetrahydroisoquinolin-6-ylamino)-5-(trifluoromethyl)pyrimidin-4-ylamino)-N-(1-cyclopropyl-2,2,2-trifluoroethyl)propanamide] | < 200
CN1CCc2cc(Nc3ncc(C4CC4)c(NCCCN4CCCC4)n3)ccc2C1 [Example 15, 5-Cyclopropyl-N2-(2-methyl-1,2,3,4-tetrahydroisoquinolin-6-yl)-N4-(3-(pyrrolidin-1-yl)propyl)pyrimidine-2,4-diamine] | ≥ 1000
CCOc1nn(C)cc1Nc1ncc(C(F)(F)F)c(NCCCN2CCCCC2=O)n1 [Example 46, 1-[3-[[2-[(3-Ethoxy-1-methyl-pyrazol-4-yl)amino]-5-(trifluoromethyl)pyrimidin-4-yl]amino]propyl]piperidin-2-one] | 200 to 1000
O=C1CCCCN1CCCNc1nc(Nc2cccc3c2OCC3)ncc1C(F)(F)F [Example 31, 1-[3-[[2-(2,3-Dihydrobenzofuran-7-ylamino)-5-(trifluoromethyl)pyrimidin-4-yl]amino]propyl]piperidin-2-one] | ≥ 1000
COc1cc2c(cc1Nc1ncc(C3CC3)c(NCCCNC(=O)C3CCC3)n1)CNCC2 [Example 74, N-[3-[[5-cyclopropyl-2-[(6-methoxy-1,2,3,4-tetrahydroisoquinolin-7-yl)amino]pyrimidin-4-yl]amino]propyl]cyclobutanecarboxamide] | ≥ 1000
COc1cc2c(cc1Nc1ncc(C(F)(F)F)c(NCCCN3CCCCC3=O)n1)CCNC2 [Example 4, 1-(3-((2-((7-Methoxy-1,2,3,4-tetrahydroisoquinolin-6-yl)amino)-5-(trifluoromethyl)pyrimidin-4-yl)amino)propyl)piperidin-2-one] | < 200
CN(C)S(=O)(=O)c1cc2c(c(Nc3ncc(C(F)(F)F)c(NCCCN4CCCCC4=O)n3)c1)OCC2 [Example 50, N,N-dimethyl-7-[[4-[3-(2-oxo-1-piperidyl)propylamino]-5-(trifluoromethyl)pyrimidin-2-yl]amino]-2,3-dihydrobenzofuran-5-sulfonamide] | ≥ 1000
COc1nn(CC(C)(C)O)cc1Nc1ncc(C(F)(F)F)c(NCCCN2CCCCC2=O)n1 [Example 28] | < 200
FC(F)(F)c1cnc(Nc2ccc(N3CCOCC3)cc2)nc1NCC1CCNC1 (stereo not shown) [Example 87, N2-(4-morpholinophenyl)-N4-(pyrrolidin-3-ylmethyl)-5-(trifluoromethyl)pyrimidine-2,4-diamine] | 200 to 1000
Cn1cc(Nc2ncc(C(F)(F)F)c(NCCCN3CCCCC3=O)n2)c(OCC(F)(F)F)n1 [Example 48, 1-[3-[[2-[[1-Methyl-3-(2,2,2-trifluoroethoxy)pyrazol-4-yl]amino]-5-(trifluoromethyl)pyrimidin-4-yl]amino]propyl]piperidin-2-one] | 200 to 1000
CN1CCc2cc(Nc3ncc(C(F)(F)F)c(NCCCN4CCCCC4=O)n3)ccc2C1 [Example 7, 1-(3-((2-((2-Methyl-1,2,3,4-tetrahydroisoquinolin-6-yl)amino)-5-(trifluoromethyl)pyrimidin-4-yl)amino)propyl)piperidin-2-one] | < 200

From patent US20240208934A1, “ULK1/2 INHIBITORS AND THEIR USE THEREOF” (LifeArc, priority 2021, published 2024)
